Results taken from US8067603B2 (priority 2003, dated 2011).
“And” between values parts separate entries of the source, which are not always exact repeats. Equal values may be shown once.

How the values were obtained:
Male Wistar rats = conditions: rat, in vivo
rats = conditions: single i.v. dose 10 minutes before agonist: J-113397 1 mg/kg, naloxone 2 mg/kg

Row | Structure (SMILES) | effect on food intake versus the vehicle treated group (Male Wistar rats; ip) | increase in food intake: antagonism by the opiate receptor antagonist naloxone (Male Wistar rats; ip) | Mean ± S.E.M. food intake 120 min after ligand administration (Male Wistar rats) | effect on the nociceptin-induced decrease in blood pressure (rats)
1 | CN1CC[C@]23c4c5ccc(O)c4O[C@H]2[C@@H](O)C=C[C@H]3[C@H]1C5 [Morphine, morphine] | dose-dependent increase in food-intake | antagonized | – | –
2 | C=CCN1CC[C@]23c4c5ccc(O)c4O[C@H]2C(=O)CC[C@@]3(O)[C@H]1C5 [naloxone] | no effect on food intake | – | 0.09 ± 0.09 g and 0.05 ± 0.001 g | without effect
